Measurements taken from patent US20100216886A1, “POLYMORPHS OF N2-(1,1'-BIPHENYL-4-YLCARBONYL)-N1-[2-(4-FLUOROPHENYL)-1,1-DIMETHYLETHYL]-L-ALPHA-GLUTAMINE” (Wyeth, priority 2006, published 2010).
Converted amounts (≈) assume the structure as drawn. “Also recorded” adds a separate entry of the source. Where a name gives a salt, the structure may show the parent alone. Read-outs that look alike come from different tables or passages of the source. Values belong to the compound of their own block, whether it stands above or below them.

Legend:
[1] = Dynamic Vapor Sorption (DVS) analysis; format: physicochemical; conditions: room temperature, 6-hour equilibration period
Description: Sample F was subject to Dynamic Vapor Sorption (DVS) analysis at room temperature. The sample was first analyzed by Karl Fischer (KF) titration containing initial moisture content of 3.7% for the monohydrate form. RH cycling started at 50% relative humidity (RH) to 100% RH and down to 0% RH and then back up to 100% RH. A 3-hour/step equilibration period was found insufficient, so the run was repeated with a 6-hour period, which was still not sufficient.
(§1) As a result, an equilibrium moisture study using desiccators containing saturated salt solutions for humidity control was performed. Sample F was incubated at 0%, 15%, 31%, 66%, 87%, and 100% RH in room temperature for up to 20 days. Samples were periodically assayed by KF titration to give the kinetic profiles. XRD analysis was performed at the end of 20 days. The data is summarized in Table 8 with kinetic and equilibrium data plotted in FIGS. 18 and 19.

[2] = Equilibrium moisture study in desiccators with saturated salt solutions (KF, XRD); format: physicochemical; conditions: Sample F incubated at room temperature, 20 days; listed as sesquihydrate
Protocol: as §1, with “Sample F was incubated at 0%, 15%, 31%, 66%, 87%, and 100% RH in room temperature for up to 20 days.” left out

[3] = Solubility in water and 2% Tw80 of samples used in toxicological formulation assessments; format: physicochemical
Description: Table 6 summarizes various solid-state properties of samples used in toxicological formulation assessments.

[4] = First CACO-2 study, metoprolol as reference; conditions: human; for recovery: Caco-2, pH 7.4, % Recovery, pH 7.4
[5] = In situ rat perfusion model, metoprolol as reference; format: in vivo; design: Papp: dose or concentration left out as unconfirmed
Description: The permeability was 18.2 nm/sec, which is higher than the 14.5 nm/sec value obtained for metoprolol (Table 13).

[6] = Second CACO-2 study, propranolol as reference; format: in vitro ADME; conditions: human, Caco-2; A → B, apical pH 6, basolateral pH 7, without verapamil
Description: The second CACO-2 study gave somewhat different results (Table 12). Because metoprolol interferes with the LC/MS assay, propranolol, which has a permeability that is […] metoprolol, was used as the FDA calibration compound. The apical pH was controlled at 6 and basolateral pH at pH 7. In addition, verapamil was used as a competitive inhibitor of the Pgp (P-glycoprotein) transporter. The ratios to propranolol were 1.00 and 0.77 with and without verapamil. […] The B→A/A→B ratios were low at 0.3 and 0.3, with and without verapamil, respectively, indicating again no efflux […].

[7] = Solubility of suspensions in Tox formulation (2% Tween 80 in water) by HPLC; format: physicochemical; conditions: ambient conditions
Protocol: Suspensions of 10 to 20 mg/mL of compound (I) in a Tox (toxicological) formulation (2% Tween 80 in water) using the polymorphs described above were prepared and equilibrated at ambient conditions. The stability of the suspensions was evaluated visually and the solubility of the suspensions was determined by HPLC.
Mobile Phase: A=900 mL/100 mL/0.1 mL Water/Acetonitrile/TFA
B=100 mL/900 mL/0.1 mL Water/Acetonitrile/TFA

[8] = Polymorphic conversion study in aqueous media (2% Tween 80, water); format: physicochemical
Description: Polymorphic conversion of Form A to Form B was not observed with Sample D in 2% Tween 80 or water.
Polymorph pseudo Form A was obtained from a scaled up preparation of polymorph Form A (Sample E).
The polymorphic conversion appeared to be slower in water than in the 2% Tween suspension, probably due to the lower solubility in water.
DSC data also supported this observation (FIG. 11).

Solid state stability [9] = format: physicochemical
physchem = conditions: for solubility at 24 h: aqueous buffer, thermodynamic from solid
Protocol: The pH solubility profile was generated first with Sample D containing polymorph Form A, and then with Sample F containing polymorph Form B, in HCl/NaOH solutions. After 24 hour equilibration, suspensions were centrifuged and the supernatants assayed by HPLC.
The solubility data was analyzed as a function of pH using the Henderson-Hasselbach equation:
Solubility=S0·[10^(PH-pKa)+1],
where S0 is the intrinsic solubility of the free acid.

Solid state stability [10] = format: physicochemical; conditions: 40° C./75% RH, open and closed vials, 3 months
Protocol: Sample F containing polymorph Form B was further investigated at 40° C./75% RH using open and closed vials for 3 months. […] Therefore, the monohydrate needs to be stored in hermetically sealed containers in order to prevent conversion to the sesquihydrate.

[11] = Thermal stress of polymorph Form B (vacuum drying, oven); format: physicochemical
Protocol: Polymorph Form B (Sample F) was stressed with vacuum drying at 40° C.

[12] = 1-month storage at 40° C./75% RH
[13] = vacuum drying at 40° C., 36 hours

SMILES: CC(C)(Cc1ccc(F)cc1)NC(=O)[C@H](CCC(=O)O)NC(=O)c1ccc(-c2ccccc2)cc1 [Form C, N^2-(1,1′-biphenyl-4-ylcarbonyl)-N^1-[2-(4-fluorophenyl)-1,1-dimethylethyl]-L-α-glutamine]
RH range in which the form is stable (DVS) [1]: 30-100 % RH | RH range at which the form is present by XRD [2]: 66-100 % RH

SMILES: CC(C)(Cc1ccc(F)cc1)NC(=O)[C@H](CCC(=O)O)NC(=O)c1ccc(-c2ccccc2)cc1 [G, N^2-(1,1′-biphenyl-4-ylcarbonyl)-N^1-[2-(4-fluorophenyl)-1,1-dimethylethyl]-L-α-glutamine]
Solubility, 2% Tw80 [3]: 127 µg/mL (≈ 266 µM) | pH of 2% Tw80 solubility sample [3]: 5.9

Papp A→B ([4]; Caco-2, pH 7.4): 60.4 ×10⁻⁶ cm/s | recovery ([4]; A → B): 109% | recovery ([4]; B → A): 115% | Papp ([5]; in situ rat perfusion model, read-out: permeability): 1.45 ×10⁻⁶ cm/s | Peff × 10^−1 (μm/sec) ([5]; rat perfusion, 20 μg/mL): 1.45 × 10^−1 μm/sec
SMILES: COCCc1ccc(OCC(O)CNC(C)C)cc1 (centres unmarked) [Metoprolol, reference compound]

Papp A→B [6]: 62.6 ×10⁻⁶ cm/s
SMILES: CC(C)NCC(O)COc1cccc2ccccc12 (centres unmarked) [Propranolol, reference compound]

SMILES: CC(C)(Cc1ccc(F)cc1)NC(=O)[C@H](CCC(=O)O)NC(=O)c1ccc(-c2ccccc2)cc1 [Sample 1, N^2-(1,1′-biphenyl-4-ylcarbonyl)-N^1-[2-(4-fluorophenyl)-1,1-dimethylethyl]-L-α-glutamine]
solubility [7]: 201.9 µg/mL (≈ 424 µM)

SMILES: CC(C)(Cc1ccc(F)cc1)NC(=O)[C@H](CCC(=O)O)NC(=O)c1ccc(-c2ccccc2)cc1 [Sample 2, N^2-(1,1′-biphenyl-4-ylcarbonyl)-N^1-[2-(4-fluorophenyl)-1,1-dimethylethyl]-L-α-glutamine]
solubility [7]: 245.0 µg/mL (≈ 514 µM)

SMILES: CC(C)(Cc1ccc(F)cc1)NC(=O)[C@H](CCC(=O)O)NC(=O)c1ccc(-c2ccccc2)cc1 [Sample 4, N^2-(1,1′-biphenyl-4-ylcarbonyl)-N^1-[2-(4-fluorophenyl)-1,1-dimethylethyl]-L-α-glutamine]
solubility ([7]; 2% Tween 80 in water (Tox formulation), aqueous with cosolvent or surfactant or cyclodextrin, thermodynamic from solid, read-out: Solubility): 221 µg/mL (≈ 464 µM)

SMILES: CC(C)(Cc1ccc(F)cc1)NC(=O)[C@H](CCC(=O)O)NC(=O)c1ccc(-c2ccccc2)cc1 [Sample 7, N^2-(1,1′-biphenyl-4-ylcarbonyl)-N^1-[2-(4-fluorophenyl)-1,1-dimethylethyl]-L-α-glutamine]
solubility [7]: 216.4 µg/mL (≈ 454 µM)

SMILES: CC(C)(Cc1ccc(F)cc1)NC(=O)[C@H](CCC(=O)O)NC(=O)c1ccc(-c2ccccc2)cc1 [Sample A, N^2-(1,1′-biphenyl-4-ylcarbonyl)-N^1-[2-(4-fluorophenyl)-1,1-dimethylethyl]-L-α-glutamine]
Degradation products of compound (I) by HPLC in converted materials ([8]; after conversion in 2% Tween 80 or water): do not contain degradation products

SMILES: CC(C)(Cc1ccc(F)cc1)NC(=O)[C@H](CCC(=O)O)NC(=O)c1ccc(-c2ccccc2)cc1 [Sample D, N^2-(1,1′-biphenyl-4-ylcarbonyl)-N^1-[2-(4-fluorophenyl)-1,1-dimethylethyl]-L-α-glutamine]
Solubility, 2% Tw80 [3]: 468 µg/mL (≈ 982 µM) | pH of 2% Tw80 solubility sample [3]: 5.4 | Solubility, Water [3]: 37 µg/mL (≈ 77.6 µM) | pH of water solubility sample [3]: 5.5 | Chemical stability, solid state (Solid state stability [9]; 14-day storage at room temperature, in temperatures up to 80° C., and in a light box (510 fc)): demonstrated chemical stability | Polymorphic conversion ([8]; 2% Tween 80/water suspension, overnight): not observed; also recorded: did not undergo polymorphic conversion | Polymorphic conversion / Polymorph Form after stirring ([8]; suspension 100 mg/mL in water, overnight (~18 hr), ambient conditions): not observed; also recorded: did not undergo polymorphic conversion | solubility at 24 h (physchem; Solubility at pH<4): ~4.5 µg/mL (≈ 9.44 µM)

SMILES: CC(C)(Cc1ccc(F)cc1)NC(=O)[C@H](CCC(=O)O)NC(=O)c1ccc(-c2ccccc2)cc1 [Sample F, N^2-(1,1′-biphenyl-4-ylcarbonyl)-N^1-[2-(4-fluorophenyl)-1,1-dimethylethyl]-L-α-glutamine]
Solubility, 2% Tw80 [3]: 217 µg/mL (≈ 455 µM) | pH of 2% Tw80 solubility sample [3]: 5.9 | Solubility, Water [3]: 99 µg/mL (≈ 208 µM) | pH of water solubility sample [3]: 7.6 | Polymorphic conversion (DSC and XRD) (Solid state stability [9]; [12]): polymorphic conversion from Form B to Form C | Water content (Solid state stability [9]; [12]): 5.4% | Chemical stability, solid state (Solid state stability [10]): chemically stable | Conversion of monohydrate to anhydrate ([11]; 100° C. oven, 23 hours): convert completely to the anhydrate | Conversion of monohydrate to anhydrate [11, 13]: did not convert to the anhydrate | Water retained [11, 13]: 2.95% | solubility at 24 h (physchem; Solubility at pH<4 (below HPLC detection limit)): < 0.011 µg/mL

SMILES: CC(C)(Cc1ccc(F)cc1)NC(=O)[C@H](CCC(=O)O)NC(=O)c1ccc(-c2ccccc2)cc1 [sodium salt, N^2-(1,1′-biphenyl-4-ylcarbonyl)-N^1-[2-(4-fluorophenyl)-1,1-dimethylethyl]-L-α-glutamine]
Solubility at pH 12.8 (physchem; HCl/NaOH solutions, 24 hour equilibration, HPLC): 4.7 mg/mL
